Laboratory results published in BindingDB's records for doi:10.1016/j.bmcl.2009.10.094 (Amgen, 2009).

Test: Antagonist activity at human CRTH2 receptor expressed in CEM cell assessed as inhibition of PGD2-induced cell migration after 3 hrs by transwell migration assay

EC50: 11 nM
SMILES: CC(=O)N(c1ccccc1)[C@@H]1C[C@H](C)N(C(=O)c2ccccc2)c2ccccc21 (racemic) [(+/-)-cis-N-(1-benzoyl-2-methyl-1,2,3,4-tetrahydroquinolin-4-yl)-N-phenylacetamide]
